Experimental data published in the supplement of paper PMC8612539.
Values after ≈ are worked out from the molar mass of the structure shown.

How the values were obtained:
Mannheimia haemolytica = assay: minimum inhibitory concentration (MIC)
Protocol: (§1)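 Broth microdilution MIC (Sensititre BOPO7F bovine plate, CLSI methods) of 19 antimicrobials against field isolates of P. multocida, M. haemolytica, H. somni (deep nasopharyngeal swabs) and E. coli, Enterococcus spp. (rectal swabs) from weaned dairy heifers. Incubation 16-24 h at 35 C. MIC is the lowest concentration preventing visible growth. Values with <= or > lie at the tested range limits. Trimethoprim-sulfamethoxazole is given as the trimethoprim component of a 1:19 mixture.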

Enterococcus spp. = assay: minimum inhibitory concentration (MIC)
Protocol: as §1

CN(C)[C@@H]1C(O)=C(C(N)=O)C(=O)[C@@]2(O)C(O)=C3C(=O)c4c(O)cccc4[C@@](C)(O)[C@H]3C[C@@H]12 [Tetracycline]
minimum inhibitory concentration [µg/mL]
Conditions | Enterococcus spp. | Mannheimia haemolytica
isolate (source animal id): 2 | 1 (≈ 2.25 µM) | –
isolate (source animal id): 8 | – | > 8
isolate (source animal id): 13 | – | > 8
isolate (source animal id): 18 | – | > 8
isolate (source animal id): 21 | – | > 8
isolate (source animal id): 25 | – | 4 (≈ 9 µM)
isolate (source animal id): 27 | – | 8 (≈ 18 µM)
isolate (source animal id): 28 | – | 8 (≈ 18 µM)
isolate (source animal id): 30 | – | > 8
isolate (source animal id): 31 | – | > 8
isolate (source animal id): 32 | – | > 8
isolate (source animal id): 34 | – | 8 (≈ 18 µM)
isolate (source animal id): 35 | > 8 | –
isolate (source animal id): 36 | – | 8 (≈ 18 µM)
isolate (source animal id): 37 | – | 8 (≈ 18 µM)
isolate (source animal id): 40 | – | > 8
isolate (source animal id): 41 | – | 8 (≈ 18 µM)
isolate (source animal id): 42 | > 8 | –
isolate (source animal id): 43 | – | > 8
isolate (source animal id): 44 | > 8 | –
isolate (source animal id): 46 | – | 8 (≈ 18 µM)
isolate (source animal id): 49 | – | 4 (≈ 9 µM)
isolate (source animal id): 50 | – | 8 (≈ 18 µM)
isolate (source animal id): 51 | – | 8 (≈ 18 µM)
isolate (source animal id): 52 | – | > 8
isolate (source animal id): 53 | – | > 8
isolate (source animal id): 55 | – | > 8
isolate (source animal id): 56 | – | > 8
isolate (source animal id): 57 | – | > 8
isolate (source animal id): 79 | > 8 | –
isolate (source animal id): 88 | 1 (≈ 2.25 µM) | –
isolate (source animal id): 91 | 2 (≈ 4.5 µM) | –
isolate (source animal id): 92 | ≤ 0.5 | –
isolate (source animal id): 100 | – | > 8
isolate (source animal id): 103 | – | 4 (≈ 9 µM)
isolate (source animal id): 107 | – | 4 (≈ 9 µM)
isolate (source animal id): 108 | – | > 8
isolate (source animal id): 111 | 1 (≈ 2.25 µM) | –
isolate (source animal id): 112 | – | > 8
isolate (source animal id): 113 | – | > 8
isolate (source animal id): 121 | – | 8 (≈ 18 µM)
isolate (source animal id): 122 | > 8 | 4 (≈ 9 µM)
isolate (source animal id): 123 | > 8 | > 8
isolate (source animal id): 126 | – | 4 (≈ 9 µM)
isolate (source animal id): 133 | > 8 | > 8
isolate (source animal id): 135 | – | > 8
isolate (source animal id): 138 | – | 4 (≈ 9 µM)
isolate (source animal id): 141 | – | > 8
isolate (source animal id): 142 | – | > 8
isolate (source animal id): 145 | – | 4 (≈ 9 µM)
isolate (source animal id): 149 | – | ≤ 0.5
isolate (source animal id): 151 | – | ≤ 0.5
isolate (source animal id): 152 | – | 4 (≈ 9 µM)
isolate (source animal id): 154 | – | ≤ 0.5
isolate (source animal id): 158 | > 8 | –
isolate (source animal id): 159 | – | 4 (≈ 9 µM)
isolate (source animal id): 162 | – | 4 (≈ 9 µM)
isolate (source animal id): 168 | > 8 | –
isolate (source animal id): 169 | > 8 | –
isolate (source animal id): 170 | – | 8 (≈ 18 µM)
isolate (source animal id): 171 | ≤ 0.5 | ≤ 0.5
isolate (source animal id): 172 | – | 8 (≈ 18 µM)
isolate (source animal id): 173 | – | 8 (≈ 18 µM)
isolate (source animal id): 175 | > 8 | –
isolate (source animal id): 177 | > 8 | –
isolate (source animal id): 179 | – | 4 (≈ 9 µM)
isolate (source animal id): 180 | – | 4 (≈ 9 µM)
isolate (source animal id): 181 | > 8 | –
isolate (source animal id): 182 | > 8 | –
isolate (source animal id): 183 | > 8 | 4 (≈ 9 µM)
isolate (source animal id): 186 | – | 4 (≈ 9 µM)
isolate (source animal id): 187 | > 8 | 4 (≈ 9 µM)
isolate (source animal id): 188 | – | 4 (≈ 9 µM)
isolate (source animal id): 190 | > 8 | ≤ 0.5
isolate (source animal id): 191 | – | 8 (≈ 18 µM)
isolate (source animal id): 192 | – | ≤ 0.5
isolate (source animal id): 194 | ≤ 0.5 | –
isolate (source animal id): 195 | > 8 | –
isolate (source animal id): 197 | > 8 | –
isolate (source animal id): 201 | – | 8 (≈ 18 µM)
isolate (source animal id): 202 | – | 4 (≈ 9 µM)
isolate (source animal id): 209 | – | 8 (≈ 18 µM)
isolate (source animal id): 211 | > 8 | ≤ 0.5
isolate (source animal id): 214 | > 8 | –
isolate (source animal id): 220 | – | 8 (≈ 18 µM)
isolate (source animal id): 221 | – | 4 (≈ 9 µM)
isolate (source animal id): 222 | > 8 | –
isolate (source animal id): 223 | ≤ 0.5 | 4 (≈ 9 µM)
isolate (source animal id): 228 | > 8 | –
isolate (source animal id): 230 | > 8 | –
isolate (source animal id): 233 | – | 4 (≈ 9 µM)
isolate (source animal id): 235 | > 8 | –
isolate (source animal id): 236 | ≤ 0.5 | –
isolate (source animal id): 237 | – | ≤ 0.5
isolate (source animal id): 239 | ≤ 0.5 | –
isolate (source animal id): 241 | > 8 | 8 (≈ 18 µM)
isolate (source animal id): 244 | ≤ 0.5 | –
isolate (source animal id): 246 | > 8 | –
isolate (source animal id): 247 | > 8 | –
isolate (source animal id): 250 | > 8 | –
isolate (source animal id): 252 | > 8 | 4 (≈ 9 µM)
isolate (source animal id): 253 | – | > 8
isolate (source animal id): 259 | – | 8 (≈ 18 µM)
isolate (source animal id): 260 | – | > 8
isolate (source animal id): 262 | – | 4 (≈ 9 µM)
isolate (source animal id): 268 | 1 (≈ 2.25 µM) | –
isolate (source animal id): 282 | ≤ 0.5 | 4 (≈ 9 µM)
isolate (source animal id): 285 | ≤ 0.5 | –
isolate (source animal id): 287 | – | 8 (≈ 18 µM)
isolate (source animal id): 288 | – | ≤ 0.5
isolate (source animal id): 289 | ≤ 0.5 | –
isolate (source animal id): 290 | ≤ 0.5 | –
isolate (source animal id): 291 | – | ≤ 0.5
isolate (source animal id): 293 | – | 4 (≈ 9 µM)
isolate (source animal id): 296 | ≤ 0.5 | –
isolate (source animal id): 298 | > 8 | > 8
isolate (source animal id): 299 | – | > 8
isolate (source animal id): 300 | – | ≤ 0.5
isolate (source animal id): 301 | ≤ 0.5 | –
isolate (source animal id): 302 | – | > 8
isolate (source animal id): 304 | – | > 8
isolate (source animal id): 306 | – | ≤ 0.5
isolate (source animal id): 308 | – | ≤ 0.5
isolate (source animal id): 309 | – | ≤ 0.5
isolate (source animal id): 310 | > 8 | –
isolate (source animal id): 313 | – | 4 (≈ 9 µM)
isolate (source animal id): 318 | – | 4 (≈ 9 µM)
isolate (source animal id): 320 | > 8 | ≤ 0.5
isolate (source animal id): 321 | – | 4 (≈ 9 µM)
isolate (source animal id): 323 | – | > 8
isolate (source animal id): 324 | – | 8 (≈ 18 µM)
isolate (source animal id): 326 | – | 4 (≈ 9 µM)
isolate (source animal id): 328 | – | 8 (≈ 18 µM)
isolate (source animal id): 329 | – | 4 (≈ 9 µM)
isolate (source animal id): 331 | ≤ 0.5 | –
isolate (source animal id): 333 | ≤ 0.5 | 4 (≈ 9 µM)
isolate (source animal id): 335 | – | 4 (≈ 9 µM)
isolate (source animal id): 338 | – | 4 (≈ 9 µM)
isolate (source animal id): 341 | > 8 | –
